Reference: PubChem BioAssay (NCI)
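At the GI50, growth is halved. TGI: total growth inhibition.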

Legend:
Experiment in all cases: NCI anticancer screen, dose series, 384-well format
OVCAR-8 ovarian = test system: OVCAR-8 ovarian
HCT-15 colon = test system: HCT-15 colon
SK-MEL-28 melanoma = test system: SK-MEL-28 melanoma
EKVX NSCLC = test system: EKVX NSCLC
NCI-H460 NSCLC = test system: NCI-H460 NSCLC
OVCAR-3 ovarian = test system: OVCAR-3 ovarian
SF-295 CNS = test system: SF-295 CNS
BT-549 breast = test system: BT-549 breast
SNB-19 CNS = test system: SNB-19 CNS
IGROV1 ovarian = test system: IGROV1 ovarian
OVCAR-4 ovarian = test system: OVCAR-4 ovarian
UACC-62 melanoma = test system: UACC-62 melanoma
A498 renal = test system: A498 renal
NCI-H226 lung = test system: NCI-H226 lung
RXF 393 renal = test system: RXF 393 renal
UACC-257 melanoma = test system: UACC-257 melanoma
SN12C renal = test system: SN12C renal
M14 melanoma = test system: M14 melanoma
DU-145 prostate = test system: DU-145 prostate
ACHN renal = test system: ACHN renal
A549 NSCLC = test system: A549 NSCLC
MDA-MB-468 breast = test system: MDA-MB-468 breast
HT29 colon = test system: HT29 colon
HS 578T breast = test system: HS 578T breast
HCC-2998 colon = test system: HCC-2998 colon
SF-539 CNS = test system: SF-539 CNS
HOP-62 NSCLC = test system: HOP-62 NSCLC
SNB-75 CNS = test system: SNB-75 CNS
RPMI-8226 leukemia = test system: RPMI-8226 leukemia
SW-620 colon = test system: SW-620 colon
T-47D breast = test system: T-47D breast
MDA-MB-435 melanoma = test system: MDA-MB-435 melanoma
786-0 renal = test system: 786-0 renal
NCI-H322M lung = test system: NCI-H322M lung
PC-3 prostate = test system: PC-3 prostate
TK-10 renal = test system: TK-10 renal
OVCAR-5 ovarian = test system: OVCAR-5 ovarian
SK-MEL-5 melanoma = test system: SK-MEL-5 melanoma
SF-268 CNS = test system: SF-268 CNS
SR leukemia = test system: SR leukemia
KM12 colon = test system: KM12 colon
MCF7 breast = test system: MCF7 breast
SK-OV-3 ovarian = test system: SK-OV-3 ovarian
CAKI-1 renal = test system: CAKI-1 renal
SK-MEL-2 melanoma = test system: SK-MEL-2 melanoma
MALME-3M melanoma = test system: MALME-3M melanoma
MOLT-4 leukemia = test system: MOLT-4 leukemia
MDA-MB-231 breast = test system: MDA-MB-231 breast
NCI-H23 lung = test system: NCI-H23 lung
NCI/ADR-RES ovarian = test system: NCI/ADR-RES ovarian
COLO 205 colon = test system: COLO 205 colon
NCI-H522 lung = test system: NCI-H522 lung
U251 glioblastoma = test system: U251 glioblastoma
HOP-92 NSCLC = test system: HOP-92 NSCLC
HL-60(TB) leukemia = test system: HL-60(TB) leukemia

CC(C)n1nc(-c2cc3cc(O)ccc3[nH]2)c2c(N)ncnc21
GI50 (OVCAR-8 ovarian): 0.988 µM
TGI (OVCAR-8 ovarian): 5.5 µM
GI50 (HCT-15 colon): 0.605 µM
TGI (HCT-15 colon): 11.9 µM
GI50 (SK-MEL-28 melanoma): 0.315 µM
TGI (SK-MEL-28 melanoma): 1.02 µM
GI50 (EKVX NSCLC): 0.546 µM
TGI (EKVX NSCLC): 3.05 µM
GI50 (NCI-H460 NSCLC): 0.147 µM
TGI (NCI-H460 NSCLC): 1.4 µM
GI50 (OVCAR-3 ovarian): 0.514 µM
TGI (OVCAR-3 ovarian): 4.94 µM
GI50 (SF-295 CNS): 1.01 µM
TGI (SF-295 CNS): 3.8 µM
GI50 (BT-549 breast): 0.6 µM
TGI (BT-549 breast): 2.31 µM
GI50 (SNB-19 CNS): 2.87 µM
TGI (SNB-19 CNS): 12.1 µM
GI50 (IGROV1 ovarian): 0.205 µM
TGI (IGROV1 ovarian): 0.642 µM
GI50 (OVCAR-4 ovarian): 0.631 µM
TGI (OVCAR-4 ovarian): 2.82 µM
GI50 (UACC-62 melanoma): 0.507 µM
TGI (UACC-62 melanoma): 2.08 µM
GI50 (A498 renal): 0.119 µM
TGI (A498 renal): 0.764 µM
GI50 (NCI-H226 lung): 0.374 µM
TGI (NCI-H226 lung): 1.29 µM
GI50 (RXF 393 renal): 0.372 µM
TGI (RXF 393 renal): 1.61 µM
GI50 (UACC-257 melanoma): 1.14 µM
TGI (UACC-257 melanoma): 5.39 µM
GI50 (SN12C renal): 0.382 µM
TGI (SN12C renal): 4.19 µM
GI50 (M14 melanoma): 0.354 µM
TGI (M14 melanoma): 2.01 µM
GI50 (DU-145 prostate): 1.34 µM
TGI (DU-145 prostate): 11 µM
GI50 (ACHN renal): 0.77 µM
TGI (ACHN renal): 2.64 µM
GI50 (A549 NSCLC): 0.415 µM
TGI (A549 NSCLC): 2.37 µM
GI50 (MDA-MB-468 breast): 0.201 µM
TGI (MDA-MB-468 breast): 0.79 µM
GI50 (HT29 colon): 1.18 µM
TGI (HT29 colon): 8.43 µM
GI50 (HS 578T breast): 0.221 µM
TGI (HS 578T breast): 0.808 µM
GI50 (HCC-2998 colon): 1.38 µM
TGI (HCC-2998 colon): 10.5 µM
GI50 (SF-539 CNS): 1.03 µM
TGI (SF-539 CNS): 2.94 µM
GI50 (HOP-62 NSCLC): 0.395 µM
TGI (HOP-62 NSCLC): 1.95 µM
GI50 (SNB-75 CNS): 0.265 µM
TGI (SNB-75 CNS): 1.56 µM
GI50 (RPMI-8226 leukemia): 0.0916 µM
TGI (RPMI-8226 leukemia): 0.236 µM
GI50 (SW-620 colon): 4.2 µM
TGI (SW-620 colon): 14.6 µM
GI50 (T-47D breast): 0.107 µM
TGI (T-47D breast): 0.48 µM
GI50 (MDA-MB-435 melanoma): 0.714 µM
TGI (MDA-MB-435 melanoma): 3.3 µM
GI50 (786-0 renal): 1.23 µM
TGI (786-0 renal): 3.94 µM
GI50 (NCI-H322M lung): 0.391 µM
TGI (NCI-H322M lung): 3.2 µM
GI50 (PC-3 prostate): 0.241 µM
TGI (PC-3 prostate): 1.25 µM
GI50 (TK-10 renal): 0.327 µM
TGI (TK-10 renal): 1.81 µM
GI50 (OVCAR-5 ovarian): 0.421 µM
TGI (OVCAR-5 ovarian): 3.58 µM
GI50 (SK-MEL-5 melanoma): 0.246 µM
TGI (SK-MEL-5 melanoma): 1.06 µM
GI50 (SF-268 CNS): 1.84 µM
TGI (SF-268 CNS): 5.93 µM
GI50 (SR leukemia): 0.285 µM
TGI (SR leukemia): 0.768 µM
GI50 (KM12 colon): 0.448 µM
TGI (KM12 colon): 6.43 µM
GI50 (MCF7 breast): 0.229 µM
TGI (MCF7 breast): 7.96 µM
GI50 (SK-OV-3 ovarian): 0.208 µM
TGI (SK-OV-3 ovarian): 0.652 µM
GI50 (CAKI-1 renal): 0.328 µM
TGI (CAKI-1 renal): 1.81 µM
GI50 (SK-MEL-2 melanoma): 0.718 µM
TGI (SK-MEL-2 melanoma): 1.8 µM
GI50 (MALME-3M melanoma): 0.0416 µM
TGI (MALME-3M melanoma): 0.271 µM
GI50 (MOLT-4 leukemia): 0.329 µM
TGI (MOLT-4 leukemia): 1.62 µM
GI50 (MDA-MB-231 breast): 0.338 µM
TGI (MDA-MB-231 breast): 3.41 µM
GI50 (NCI-H23 lung): 0.952 µM
TGI (NCI-H23 lung): 3.22 µM
GI50 (NCI/ADR-RES ovarian): 0.511 µM
TGI (NCI/ADR-RES ovarian): 2.2 µM
GI50 (COLO 205 colon): 0.348 µM
TGI (COLO 205 colon): 1.18 µM
GI50 (NCI-H522 lung): 0.104 µM
TGI (NCI-H522 lung): 0.701 µM
GI50 (U251 glioblastoma): 1.89 µM
TGI (U251 glioblastoma): 6.01 µM
GI50 (HOP-92 NSCLC): 0.345 µM
TGI (HOP-92 NSCLC): 1.62 µM
GI50 (HL-60(TB) leukemia): 1.76 µM
TGI (HL-60(TB) leukemia): 3.99 µM
